Assay results published in paper PMC9329436, “Optimization of the 4-anilinoquin(az)oline scaffold as epidermal growth factor receptor (EGFR) inhibitors for chordoma utilizing a toxicology profiling assay platform” (Scientific Reports, 2022).
Like-named read-outs stand apart in the source and are kept apart here.

How the values were obtained:
Assay type in all cases: biochemical
[1] = molecular target: 320 wild-type protein kinases (Homo sapiens, UniProt Q9NYY3); settings: kinase SNK, singlicate
Chain of 320 wild-type protein kinases (Homo sapiens, UniProt Q9NYY3) (Q9NYY3 whole entry): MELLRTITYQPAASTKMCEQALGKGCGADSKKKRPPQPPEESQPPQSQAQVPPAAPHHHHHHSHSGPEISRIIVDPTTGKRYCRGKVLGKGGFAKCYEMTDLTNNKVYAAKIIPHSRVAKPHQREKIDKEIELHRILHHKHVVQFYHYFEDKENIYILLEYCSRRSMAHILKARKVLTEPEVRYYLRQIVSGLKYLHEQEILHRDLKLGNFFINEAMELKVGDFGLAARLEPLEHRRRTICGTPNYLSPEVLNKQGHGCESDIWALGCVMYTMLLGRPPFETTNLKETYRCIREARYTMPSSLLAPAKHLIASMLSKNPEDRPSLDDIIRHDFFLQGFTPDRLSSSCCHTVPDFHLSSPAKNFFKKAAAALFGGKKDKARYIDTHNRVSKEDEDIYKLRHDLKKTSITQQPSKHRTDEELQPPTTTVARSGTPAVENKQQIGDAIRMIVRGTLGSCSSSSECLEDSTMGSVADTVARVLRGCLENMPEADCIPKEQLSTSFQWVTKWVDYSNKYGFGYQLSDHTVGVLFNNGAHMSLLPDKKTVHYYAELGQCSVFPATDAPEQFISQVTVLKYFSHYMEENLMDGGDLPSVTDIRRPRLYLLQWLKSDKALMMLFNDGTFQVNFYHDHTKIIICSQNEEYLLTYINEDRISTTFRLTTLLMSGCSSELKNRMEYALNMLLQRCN
Excerpt: (§1) Table S4. Profiling of two compounds at two concentrations against 320 wild-type protein kinases; singlicate measurement; Residual activities (% of control).

[2] = molecular target: 320 wild-type protein kinases (Homo sapiens, UniProt Q13554); settings: CAMK2B, singlicate
Excerpt: as §1

[3] = molecular target: 320 wild-type protein kinases (Homo sapiens, UniProt P45984); settings: singlicate
Chain of 320 wild-type protein kinases (Homo sapiens, UniProt P45984) (P45984 whole entry): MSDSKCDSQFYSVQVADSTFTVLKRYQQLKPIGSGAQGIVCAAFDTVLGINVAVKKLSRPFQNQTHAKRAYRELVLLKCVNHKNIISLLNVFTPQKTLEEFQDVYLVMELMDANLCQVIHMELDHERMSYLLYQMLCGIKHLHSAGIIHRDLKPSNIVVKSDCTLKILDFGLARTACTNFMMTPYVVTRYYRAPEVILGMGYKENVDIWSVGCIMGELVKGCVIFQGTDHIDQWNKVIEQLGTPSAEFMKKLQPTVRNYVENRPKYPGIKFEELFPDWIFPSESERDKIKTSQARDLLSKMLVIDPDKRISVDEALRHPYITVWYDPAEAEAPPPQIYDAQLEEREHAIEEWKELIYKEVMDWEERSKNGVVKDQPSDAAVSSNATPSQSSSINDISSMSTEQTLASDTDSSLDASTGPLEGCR
Excerpt: as §1

[4] = molecular target: 320 wild-type protein kinases (Homo sapiens, UniProt Q16288); settings: kinase TRK-C, singlicate
Chain of 320 wild-type protein kinases (Homo sapiens, UniProt Q16288) (Q16288 32-839): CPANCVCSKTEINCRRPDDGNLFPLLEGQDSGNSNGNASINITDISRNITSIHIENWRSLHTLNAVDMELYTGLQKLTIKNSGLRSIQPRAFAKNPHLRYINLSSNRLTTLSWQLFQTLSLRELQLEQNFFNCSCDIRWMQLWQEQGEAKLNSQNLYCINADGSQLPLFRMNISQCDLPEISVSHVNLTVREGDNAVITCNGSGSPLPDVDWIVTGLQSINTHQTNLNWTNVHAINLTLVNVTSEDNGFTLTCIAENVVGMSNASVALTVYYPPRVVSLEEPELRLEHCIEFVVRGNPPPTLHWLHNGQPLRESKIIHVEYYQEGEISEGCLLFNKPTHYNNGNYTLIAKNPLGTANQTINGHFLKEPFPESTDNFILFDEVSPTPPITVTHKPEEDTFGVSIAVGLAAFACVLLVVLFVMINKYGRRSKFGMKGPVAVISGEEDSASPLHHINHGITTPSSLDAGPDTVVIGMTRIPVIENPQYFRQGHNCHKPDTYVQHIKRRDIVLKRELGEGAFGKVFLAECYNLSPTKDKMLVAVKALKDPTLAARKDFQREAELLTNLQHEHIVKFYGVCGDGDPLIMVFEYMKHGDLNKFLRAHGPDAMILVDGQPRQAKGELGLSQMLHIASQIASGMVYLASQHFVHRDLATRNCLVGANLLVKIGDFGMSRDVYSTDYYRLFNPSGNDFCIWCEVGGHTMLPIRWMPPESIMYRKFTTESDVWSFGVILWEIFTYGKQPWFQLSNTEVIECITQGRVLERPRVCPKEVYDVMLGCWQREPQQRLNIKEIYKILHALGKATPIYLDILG
Excerpt: as §1

[5] = molecular target: 320 wild-type protein kinases (Homo sapiens, UniProt P42684); settings: singlicate
Chain of 320 wild-type protein kinases (Homo sapiens, UniProt P42684) (P42684 whole entry): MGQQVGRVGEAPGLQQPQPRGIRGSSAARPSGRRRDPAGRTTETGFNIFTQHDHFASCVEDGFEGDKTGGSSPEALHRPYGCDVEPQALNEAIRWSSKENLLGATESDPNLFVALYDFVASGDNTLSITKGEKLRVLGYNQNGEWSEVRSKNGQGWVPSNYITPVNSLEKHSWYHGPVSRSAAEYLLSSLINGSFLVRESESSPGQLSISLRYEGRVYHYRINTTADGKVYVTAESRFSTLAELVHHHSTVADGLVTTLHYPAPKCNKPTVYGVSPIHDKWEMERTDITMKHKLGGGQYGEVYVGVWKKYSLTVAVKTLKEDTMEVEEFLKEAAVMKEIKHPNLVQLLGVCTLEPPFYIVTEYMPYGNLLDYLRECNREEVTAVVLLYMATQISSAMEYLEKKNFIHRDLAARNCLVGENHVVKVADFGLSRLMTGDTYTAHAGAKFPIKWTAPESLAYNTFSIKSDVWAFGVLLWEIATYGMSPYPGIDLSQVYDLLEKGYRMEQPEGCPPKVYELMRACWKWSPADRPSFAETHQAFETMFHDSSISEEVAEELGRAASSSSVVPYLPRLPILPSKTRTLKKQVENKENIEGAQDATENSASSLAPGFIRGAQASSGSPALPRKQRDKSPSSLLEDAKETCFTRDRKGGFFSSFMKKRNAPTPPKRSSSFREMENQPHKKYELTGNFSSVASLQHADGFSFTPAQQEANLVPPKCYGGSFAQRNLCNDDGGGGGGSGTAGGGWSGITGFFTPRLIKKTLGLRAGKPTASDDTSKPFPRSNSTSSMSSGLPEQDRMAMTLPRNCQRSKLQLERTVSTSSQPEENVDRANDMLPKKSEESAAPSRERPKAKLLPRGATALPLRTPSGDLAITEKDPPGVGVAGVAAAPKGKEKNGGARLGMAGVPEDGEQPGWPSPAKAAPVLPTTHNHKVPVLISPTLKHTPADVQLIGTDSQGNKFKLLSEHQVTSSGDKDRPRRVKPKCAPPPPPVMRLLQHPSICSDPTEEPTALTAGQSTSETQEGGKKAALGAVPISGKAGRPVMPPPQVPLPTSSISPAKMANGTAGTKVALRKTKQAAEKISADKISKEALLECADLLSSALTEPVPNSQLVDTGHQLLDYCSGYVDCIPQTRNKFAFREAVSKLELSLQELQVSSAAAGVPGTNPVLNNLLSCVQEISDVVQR
Excerpt: as §1

[6] = molecular target: 320 wild-type protein kinases (Homo sapiens, UniProt P49137); settings: singlicate
Excerpt: as §1

[7] = molecular target: 320 wild-type protein kinases (Homo sapiens, UniProt P24723); settings: PKC-eta, singlicate
Excerpt: as §1

[8] = molecular target: 320 wild-type protein kinases (Homo sapiens, UniProt P27361); settings: singlicate
Chain of 320 wild-type protein kinases (Homo sapiens, UniProt P27361) (P27361 whole entry): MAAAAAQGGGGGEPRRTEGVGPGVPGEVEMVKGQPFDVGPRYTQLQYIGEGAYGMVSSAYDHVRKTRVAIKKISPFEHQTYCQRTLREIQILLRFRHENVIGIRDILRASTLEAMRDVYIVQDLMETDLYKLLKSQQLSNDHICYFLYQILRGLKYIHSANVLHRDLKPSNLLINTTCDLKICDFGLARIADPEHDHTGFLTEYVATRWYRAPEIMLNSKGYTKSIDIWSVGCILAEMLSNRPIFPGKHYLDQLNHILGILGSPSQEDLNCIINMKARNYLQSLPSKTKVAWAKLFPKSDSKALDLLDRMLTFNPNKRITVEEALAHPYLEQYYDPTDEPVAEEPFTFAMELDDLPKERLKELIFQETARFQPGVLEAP
Excerpt: as §1

[9] = molecular target: 320 wild-type protein kinases (Homo sapiens, UniProt Q9P0L2); settings: singlicate
Excerpt: as §1

[10] = molecular target: 320 wild-type protein kinases (Homo sapiens, UniProt O75716); settings: kinase TSF1, singlicate
Excerpt: as §1

[11] = molecular target: 320 wild-type protein kinases (Homo sapiens, UniProt P07948); settings: LYN, singlicate
Excerpt: as §1

[12] = molecular target: 320 wild-type protein kinases (Homo sapiens, UniProt P00519); settings: singlicate
Excerpt: as §1

[13] = molecular target: T1, 320 wild-type protein kinases (Homo sapiens, UniProt Q9H2K8); settings: kinase TAOK3, singlicate
T1 sequence (Q9H2K8 1-898): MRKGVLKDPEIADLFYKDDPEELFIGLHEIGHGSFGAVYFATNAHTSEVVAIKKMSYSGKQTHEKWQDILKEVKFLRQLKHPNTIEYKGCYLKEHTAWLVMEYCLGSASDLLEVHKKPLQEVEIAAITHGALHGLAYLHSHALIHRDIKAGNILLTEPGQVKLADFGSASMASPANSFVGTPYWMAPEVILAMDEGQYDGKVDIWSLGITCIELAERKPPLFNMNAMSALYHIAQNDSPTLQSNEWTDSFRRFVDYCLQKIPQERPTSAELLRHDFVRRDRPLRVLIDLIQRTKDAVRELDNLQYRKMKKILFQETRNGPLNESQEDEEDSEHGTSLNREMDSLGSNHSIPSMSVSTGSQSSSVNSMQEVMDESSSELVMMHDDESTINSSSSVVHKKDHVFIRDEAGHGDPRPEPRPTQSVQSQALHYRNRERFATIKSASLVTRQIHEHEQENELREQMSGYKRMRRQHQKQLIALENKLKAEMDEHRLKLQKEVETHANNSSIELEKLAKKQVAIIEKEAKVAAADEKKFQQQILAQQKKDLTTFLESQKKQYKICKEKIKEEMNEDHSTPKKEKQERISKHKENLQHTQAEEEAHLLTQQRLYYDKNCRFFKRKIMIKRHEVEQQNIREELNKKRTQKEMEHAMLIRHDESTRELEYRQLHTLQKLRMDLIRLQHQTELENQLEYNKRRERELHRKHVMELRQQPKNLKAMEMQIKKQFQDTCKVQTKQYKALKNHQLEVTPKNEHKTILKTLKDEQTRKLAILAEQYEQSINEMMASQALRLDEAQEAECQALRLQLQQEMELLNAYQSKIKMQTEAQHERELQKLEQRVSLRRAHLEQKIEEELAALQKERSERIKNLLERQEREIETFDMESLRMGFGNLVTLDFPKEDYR
Excerpt: as §1

[14] = molecular target: 320 wild-type protein kinases (Homo sapiens, UniProt Q5S007); settings: singlicate
Excerpt: as §1

[15] = molecular target: 320 wild-type protein kinases (Homo sapiens, UniProt P54764); settings: singlicate
Excerpt: as §1

[16] = molecular target: 320 wild-type protein kinases (Homo sapiens, UniProt P22607); settings: singlicate
Chain of 320 wild-type protein kinases (Homo sapiens, UniProt P22607) (P22607 23-806): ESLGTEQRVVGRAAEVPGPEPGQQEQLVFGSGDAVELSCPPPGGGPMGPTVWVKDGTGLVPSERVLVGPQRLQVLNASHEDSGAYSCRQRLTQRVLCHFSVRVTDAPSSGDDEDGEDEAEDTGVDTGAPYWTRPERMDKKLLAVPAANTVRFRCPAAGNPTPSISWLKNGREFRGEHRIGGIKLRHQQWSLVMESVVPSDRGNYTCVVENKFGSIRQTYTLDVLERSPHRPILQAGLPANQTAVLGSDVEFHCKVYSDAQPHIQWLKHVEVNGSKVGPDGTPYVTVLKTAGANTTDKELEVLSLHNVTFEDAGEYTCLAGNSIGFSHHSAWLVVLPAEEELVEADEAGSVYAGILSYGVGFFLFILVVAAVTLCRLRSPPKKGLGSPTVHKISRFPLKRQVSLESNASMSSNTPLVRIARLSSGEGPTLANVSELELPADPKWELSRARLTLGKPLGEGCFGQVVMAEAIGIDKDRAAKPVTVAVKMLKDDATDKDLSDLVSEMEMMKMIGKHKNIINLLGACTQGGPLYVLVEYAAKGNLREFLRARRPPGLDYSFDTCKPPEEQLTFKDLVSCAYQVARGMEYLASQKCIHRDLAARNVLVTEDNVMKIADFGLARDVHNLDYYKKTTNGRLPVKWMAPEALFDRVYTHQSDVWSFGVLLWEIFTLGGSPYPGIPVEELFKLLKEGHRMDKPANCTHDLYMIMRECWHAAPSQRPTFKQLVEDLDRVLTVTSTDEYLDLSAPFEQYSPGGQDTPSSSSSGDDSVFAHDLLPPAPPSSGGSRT
Excerpt: as §1

[17] = molecular target: 320 wild-type protein kinases (Homo sapiens, UniProt P17252); settings: PKC-alpha, singlicate
Excerpt: as §1

[18] = molecular target: 320 wild-type protein kinases (Homo sapiens, UniProt Q9Y463); settings: DYRK1B, singlicate
Chain of 320 wild-type protein kinases (Homo sapiens, UniProt Q9Y463) (Q9Y463 whole entry): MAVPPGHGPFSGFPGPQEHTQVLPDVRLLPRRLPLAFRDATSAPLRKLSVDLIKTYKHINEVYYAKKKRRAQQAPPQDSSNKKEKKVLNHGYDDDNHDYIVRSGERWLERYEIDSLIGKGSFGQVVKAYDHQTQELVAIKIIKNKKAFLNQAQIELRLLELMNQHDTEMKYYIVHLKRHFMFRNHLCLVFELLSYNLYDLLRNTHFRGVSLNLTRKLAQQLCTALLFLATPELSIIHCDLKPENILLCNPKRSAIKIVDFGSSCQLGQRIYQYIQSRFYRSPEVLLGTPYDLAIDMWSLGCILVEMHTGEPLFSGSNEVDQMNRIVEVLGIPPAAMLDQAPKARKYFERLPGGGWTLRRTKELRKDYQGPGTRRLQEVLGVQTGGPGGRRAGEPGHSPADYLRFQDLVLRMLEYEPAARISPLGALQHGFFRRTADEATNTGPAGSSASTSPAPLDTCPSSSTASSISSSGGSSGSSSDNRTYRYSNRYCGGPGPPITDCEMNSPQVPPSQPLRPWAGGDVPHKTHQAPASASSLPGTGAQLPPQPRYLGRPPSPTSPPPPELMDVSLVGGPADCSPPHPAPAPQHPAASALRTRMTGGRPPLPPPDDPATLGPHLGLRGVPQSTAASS
Excerpt: as §1

Q: For `C#Cc1cc(Nc2ncnc3cc(OC)c(OC)cc23)ccc1Cl` [Compound 45], which “Residual activity, SNK” value ([1]; assay conc. 1.0E-06 M) is on record?
A: The value was 87 % of control.

Q: What about the “Residual activity, SNK” value ([1]; assay conc. 1.0E-07 M) of the same compound?
A: Its value is 99 % of control.

Q: What about the Residual activity ([2]; 1.0E-06 M) of the same compound?
A: The Residual activity was 103 % of control.

Q: What about the Residual activity ([2]; 1.0E-07 M) of the same compound?
A: The Residual activity was 81 % of control.

Q: What about the Residual activity ([3]; JNK2, 1.0E-06 M) of the same compound?
A: Its Residual activity is 120 % of control.

Q: What about the Residual activity ([3]; JNK2, 1.0E-07 M) of the same compound?
A: The Residual activity was 115 % of control.

Q: And the “Residual activity, TRK-C” value ([4]; assay conc. 1.0E-06 M)?
A: Its value is 113 % of control.

Q: What about the “Residual activity, TRK-C” value ([4]; assay conc. 1.0E-07 M) of the same compound?
A: Its value is 136 % of control.

Q: And the Residual activity ([5]; ABL2, 1.0E-06 M)?
A: The Residual activity was 68 % of control.

Q: What about the Residual activity ([5]; ABL2, 1.0E-07 M) of the same compound?
A: The Residual activity was 96 % of control.

Q: And the Residual activity ([6]; MAPKAPK2, 1.0E-06 M)?
A: Its Residual activity is 138 % of control.

Q: And the Residual activity ([7]; 1.0E-06 M)?
A: The Residual activity was 75 % of control.

Q: And the Residual activity ([7]; 1.0E-07 M)?
A: The Residual activity was 90 % of control.

Q: What about the Residual activity ([8]; ERK1, 1.0E-06 M) of the same compound?
A: The Residual activity was 95 % of control.

Q: And the Residual activity ([8]; ERK1, 1.0E-07 M)?
A: Its Residual activity is 92 % of control.

Q: And the Residual activity ([9]; MARK1, 1.0E-06 M)?
A: Its Residual activity is 93 % of control.

Q: And the Residual activity ([9]; MARK1, 1.0E-07 M)?
A: Its Residual activity is 93 % of control.

Q: And the “Residual activity, TSF1” value ([10]; assay conc. 1.0E-06 M)?
A: Its value is 104 % of control.

Q: And the “Residual activity, TSF1” value ([10]; assay conc. 1.0E-07 M)?
A: Its value is 95 % of control.

Q: What about the Residual activity ([11]; 1.0E-06 M) of the same compound?
A: The Residual activity was 62 % of control.

Q: What about the Residual activity ([11]; 1.0E-07 M) of the same compound?
A: The Residual activity was 94 % of control.

Q: And the Residual activity ([12]; ABL1, 1.0E-06 M)?
A: The Residual activity was 59 % of control.

Q: What about the Residual activity ([12]; ABL1, 1.0E-07 M) of the same compound?
A: Its Residual activity is 100 % of control.

Q: And the “Residual activity, TAOK3” value ([13]; assay conc. 1.0E-06 M)?
A: The value was 106 % of control.

Q: What about the “Residual activity, TAOK3” value ([13]; assay conc. 1.0E-07 M) of the same compound?
A: Its value is 92 % of control.

Q: And the Residual activity ([14]; LRRK2, 1.0E-06 M)?
A: Its Residual activity is 81 % of control.

Q: What about the Residual activity ([14]; LRRK2, 1.0E-07 M) of the same compound?
A: The Residual activity was 99 % of control.

Q: What about the Residual activity ([15]; EPHA4, 1.0E-06 M) of the same compound?
A: The Residual activity was 61 % of control.

Q: And the Residual activity ([15]; EPHA4, 1.0E-07 M)?
A: Its Residual activity is 99 % of control.

Q: And the Residual activity ([16]; FGF-R3, 1.0E-06 M)?
A: The Residual activity was 70 % of control.

Q: And the Residual activity ([16]; FGF-R3, 1.0E-07 M)?
A: Its Residual activity is 79 % of control.

Q: What about the Residual activity ([17]; 1.0E-06 M) of the same compound?
A: The Residual activity was 94 % of control.

Q: And the Residual activity ([17]; 1.0E-07 M)?
A: The Residual activity was 111 % of control.

Q: And the Residual activity ([18]; 1.0E-06 M)?
A: The Residual activity was 111 % of control.

Q: What about the Residual activity ([18]; 1.0E-07 M) of the same compound?
A: Its Residual activity is 105 % of control.

Q: Which “Residual activity, SNK” value ([1]; assay conc. 1.0E-06 M) does the source give for `C#Cc1cc(Nc2ncnc3cc(I)ccc23)ccc1Cl` [Compound 41] here?
A: The value was 89 % of control.

Q: What about the “Residual activity, SNK” value ([1]; assay conc. 1.0E-07 M) of the same compound?
A: Its value is 97 % of control.

Q: What about the Residual activity ([2]; 1.0E-06 M) of the same compound?
A: Its Residual activity is 86 % of control.

Q: What about the Residual activity ([2]; 1.0E-07 M) of the same compound?
A: The Residual activity was 84 % of control.

Q: What about the Residual activity ([3]; JNK2, 1.0E-06 M) of the same compound?
A: Its Residual activity is 116 % of control.

Q: What about the Residual activity ([3]; JNK2, 1.0E-07 M) of the same compound?
A: The Residual activity was 110 % of control.

Q: What about the “Residual activity, TRK-C” value ([4]; assay conc. 1.0E-06 M) of the same compound?
A: The value was 105 % of control.

Q: What about the “Residual activity, TRK-C” value ([4]; assay conc. 1.0E-07 M) of the same compound?
A: Its value is 115 % of control.

Q: What about the Residual activity ([5]; ABL2, 1.0E-06 M) of the same compound?
A: Its Residual activity is 97 % of control.

Q: And the Residual activity ([5]; ABL2, 1.0E-07 M)?
A: Its Residual activity is 106 % of control.

Q: And the Residual activity ([6]; MAPKAPK2, 1.0E-07 M)?
A: The Residual activity was 139 % of control.

Q: And the Residual activity ([7]; 1.0E-06 M)?
A: The Residual activity was 91 % of control.

Q: And the Residual activity ([7]; 1.0E-07 M)?
A: Its Residual activity is 93 % of control.

Q: And the Residual activity ([8]; ERK1, 1.0E-06 M)?
A: Its Residual activity is 97 % of control.

Q: And the Residual activity ([8]; ERK1, 1.0E-07 M)?
A: Its Residual activity is 91 % of control.

Q: What about the Residual activity ([9]; MARK1, 1.0E-06 M) of the same compound?
A: Its Residual activity is 85 % of control.

Q: What about the Residual activity ([9]; MARK1, 1.0E-07 M) of the same compound?
A: Its Residual activity is 94 % of control.

Q: What about the “Residual activity, TSF1” value ([10]; assay conc. 1.0E-06 M) of the same compound?
A: The value was 94 % of control.

Q: What about the “Residual activity, TSF1” value ([10]; assay conc. 1.0E-07 M) of the same compound?
A: The value was 93 % of control.

Q: And the Residual activity ([11]; 1.0E-06 M)?
A: The Residual activity was 89 % of control.

Q: And the Residual activity ([11]; 1.0E-07 M)?
A: The Residual activity was 103 % of control.

Q: And the Residual activity ([12]; ABL1, 1.0E-06 M)?
A: Its Residual activity is 72 % of control.

Q: What about the Residual activity ([12]; ABL1, 1.0E-07 M) of the same compound?
A: Its Residual activity is 85 % of control.

Q: What about the “Residual activity, TAOK3” value ([13]; assay conc. 1.0E-06 M) of the same compound?
A: Its value is 93 % of control.

Q: And the “Residual activity, TAOK3” value ([13]; assay conc. 1.0E-07 M)?
A: The value was 87 % of control.

Q: What about the Residual activity ([14]; LRRK2, 1.0E-06 M) of the same compound?
A: The Residual activity was 87 % of control.

Q: And the Residual activity ([14]; LRRK2, 1.0E-07 M)?
A: Its Residual activity is 88 % of control.

Q: And the Residual activity ([15]; EPHA4, 1.0E-06 M)?
A: Its Residual activity is 83 % of control.

Q: And the Residual activity ([15]; EPHA4, 1.0E-07 M)?
A: The Residual activity was 96 % of control.

Q: And the Residual activity ([16]; FGF-R3, 1.0E-06 M)?
A: The Residual activity was 93 % of control.

Q: And the Residual activity ([16]; FGF-R3, 1.0E-07 M)?
A: Its Residual activity is 99 % of control.

Q: And the Residual activity ([17]; 1.0E-06 M)?
A: Its Residual activity is 95 % of control.

Q: What about the Residual activity ([17]; 1.0E-07 M) of the same compound?
A: Its Residual activity is 86 % of control.

Q: What about the Residual activity ([18]; 1.0E-06 M) of the same compound?
A: The Residual activity was 90 % of control.

Q: And the Residual activity ([18]; 1.0E-07 M)?
A: The Residual activity was 116 % of control.
